Results on two compounds are retold here after PubChem BioAssay (NCI).

Each structure is given as a SMILES string.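 Five concentrations, 48 hours, 96-well plates. GI50 = concentration required for 50% inhibition of growth. Definition used: TGI = concentration required for complete inhibition of growth.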 Bounds are passed on as bounds.

Among the test systems are T-47D breast; NCI/ADR-RES ovarian; BT-549 breast; SN12C renal; MCF7 breast; MDA-MB-231 breast; MDA-MB-435; SK-MEL-5 melanoma; M19-MEL melanoma; DLD-1 colon; NCI-H226 lung; KM20L2 colon; DMS 114 small cell lung; XF 498 CNS; SNB-78 CNS.
Holding throughout (assay): DTP human tumour cell line panel, 48 h

One may read the TGI as the concentration giving total growth inhibition. One may read the GI50 as the concentration that inhibits growth by half.

For the compound `CCOC(=O)/C(=N/Nc1ccccc1)N1C(=S)C=C(C)NN(C)C1=S`, the TGI with T-47D breast, with NCI/ADR-RES ovarian, in the assay on BT-549 breast, with SN12C renal, in the assay with MCF7 breast and with MDA-MB-231 breast was above 100 µM throughout. Also, the concentration for total growth inhibition (TGI) in the assay on MDA-MB-435 and in the assay on SK-MEL-5 melanoma was above 100 µM throughout.

Turning to `C/C(=N\NC(=O)c1ccccc1O)c1cccc(/C(C)=N/NC(=O)c2ccccc2O)n1.O=S(=O)([O-])[O-].[Fe+2]`, the GI50 with M19-MEL melanoma, in the assay with DLD-1 colon, in the assay with NCI-H226 lung, with KM20L2 colon and in the assay on SNB-78 CNS was above 100 µM in each case. Further, the TGI in the assay with M19-MEL melanoma, in the assay with DLD-1 colon, in the assay on NCI-H226 lung, with KM20L2 colon, in the assay on DMS 114 small cell lung and in the assay on XF 498 CNS was above 100 µM in each case. The TGI with SNB-78 CNS is above 100 µM.
